Results from US10538498B2, “1,3,4-oxadiazole sulfonamide derivative compounds as histone deacetylase 6 inhibitor, and the pharmaceutical composition comprising the same” (Chong Kun Dang Pharmaceutical Corp., priority 2015, dated 2020).

Target: T1, human recombinant HDAC6 (Homo sapiens, UniProt Q9UBN7)
T1 construct: purchased Calbiochem 382180
T1 sequence (Q9UBN7 1-1215): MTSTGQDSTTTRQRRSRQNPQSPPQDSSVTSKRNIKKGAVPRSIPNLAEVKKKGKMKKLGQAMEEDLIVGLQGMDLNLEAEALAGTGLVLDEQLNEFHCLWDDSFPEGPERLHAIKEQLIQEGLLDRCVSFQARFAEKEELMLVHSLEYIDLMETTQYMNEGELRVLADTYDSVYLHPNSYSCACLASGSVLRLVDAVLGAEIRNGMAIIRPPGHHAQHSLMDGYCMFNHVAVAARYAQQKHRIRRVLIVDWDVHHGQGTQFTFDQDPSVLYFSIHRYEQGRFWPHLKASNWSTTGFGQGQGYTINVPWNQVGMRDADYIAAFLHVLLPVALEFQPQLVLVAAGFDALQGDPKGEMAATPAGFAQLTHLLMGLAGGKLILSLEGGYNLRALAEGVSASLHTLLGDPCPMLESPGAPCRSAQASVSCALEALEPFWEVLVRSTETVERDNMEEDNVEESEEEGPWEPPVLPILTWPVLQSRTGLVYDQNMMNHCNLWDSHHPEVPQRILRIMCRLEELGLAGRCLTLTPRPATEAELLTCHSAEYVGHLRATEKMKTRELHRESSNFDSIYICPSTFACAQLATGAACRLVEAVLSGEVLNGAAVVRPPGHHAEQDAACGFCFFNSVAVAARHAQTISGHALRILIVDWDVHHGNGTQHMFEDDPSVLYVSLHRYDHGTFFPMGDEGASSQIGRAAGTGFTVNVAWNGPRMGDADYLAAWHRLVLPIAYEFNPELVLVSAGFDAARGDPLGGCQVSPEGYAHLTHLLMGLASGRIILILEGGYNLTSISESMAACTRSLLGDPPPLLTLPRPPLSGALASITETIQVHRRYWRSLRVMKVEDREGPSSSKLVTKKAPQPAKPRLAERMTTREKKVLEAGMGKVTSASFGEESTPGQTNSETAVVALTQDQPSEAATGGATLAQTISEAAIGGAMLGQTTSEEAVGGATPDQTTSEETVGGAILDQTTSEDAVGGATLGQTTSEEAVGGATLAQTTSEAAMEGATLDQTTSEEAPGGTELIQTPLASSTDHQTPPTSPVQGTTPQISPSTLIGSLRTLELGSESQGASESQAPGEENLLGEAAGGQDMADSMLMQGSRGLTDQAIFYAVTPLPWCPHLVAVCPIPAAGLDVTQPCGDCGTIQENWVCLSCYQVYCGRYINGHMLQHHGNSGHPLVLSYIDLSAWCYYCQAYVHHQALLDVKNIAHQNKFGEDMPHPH
Assay: HDAC6 enzyme activity inhibition assay (HDAC Fluorimetric Drug Discovery Kit)
Type: biochemical
Conditions: for HDAC6 selectivity (fold): HDAC1 vs HDAC6; for IC50: same protocol as the HDAC1 enzyme activity test
In short: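 IC50s derived from fluorescence (Ex 360, Em 460) read after a 30-min developer step. Beforehand, compounds in 5-fold dilution series reacted 60 min at 30° C with 0.3 μg human recombinant enzyme and 10 μM Fluor de Lys-SIRT1 substrate.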

| Structure (SMILES) | HDAC6 selectivity (fold) | IC50 |
| --- | --- | --- |
| CS(=O)(=O)N(Cc1ccc(-c2nnc(C(F)F)o2)cc1)c1cccnc1 [Compound 11628, N-(4-(5-(difluoromethyl)-1,3,4-oxadiazol-2-yl)benzyl)-N-(pyridin-3-yl)methanesulfonamide] | 2083 fold | 48 nM |
| CS(=O)(=O)N(Cc1ccc(-c2nnc(C(F)(F)F)o2)c(F)c1)c1cccnc1 [Compound 11133, N-(3-fluoro-4-(5-(trifluoromethyl)-1,3,4-oxadiazol-2-yl)benzyl)-N-(pyridin-3-yl)methanesulfonamide] | 290 fold | 345 nM |
| CCS(=O)(=O)N(Cc1ccc(-c2nnc(C(F)F)o2)cc1F)c1cccc(CN2CCN(C)CC2)c1 [Compound 11405, N-(4-(5-(difluoromethyl)-1,3,4-oxadiazol-2-yl)-2-fluorobenzyl)-N-(3-((4-methylpiperazin-1-yl)methyl)phenyl)ethanesulfonamide] | 1493 fold | 67 nM |
| Cc1nccn1CCS(=O)(=O)N(Cc1ccc(-c2nnc(C(F)F)o2)cc1)c1ccccc1 [Compound 11806, N-(4-(5-(difluoromethyl)-1,3,4-oxadiazol-2-yl)benzyl)-2-(2-methyl-1H-imidazol-1-yl)-N-phenylethane-1-sulfonamide] | 4000 fold | 25 nM |
| CS(=O)(=O)N(Cc1ccccn1)Cc1ccc(-c2nnc(C(F)(F)F)o2)cc1F [Compound 11044, N-(2-fluoro-4-(5-(trifluoromethyl)-1,3,4-oxadiazol-2-yl)benzyl)-N-(pyridin-2-ylmethyl)methanesulfonamide] | 302 fold | 331 nM |
| CS(=O)(=O)N(Cc1ccc(-c2nnc(C(F)(F)F)o2)cc1F)c1ccccc1C(F)(F)F [Compound 11218, N-(2-fluoro-4-(5-(trifluoromethyl)-1,3,4-oxadiazol-2-yl)benzyl)-N-(2-(trifluoromethyl)phenyl)methanesulfonamide] | 429 fold | 233 nM |
| CS(=O)(=O)N(Cc1ccc(-c2nnc(C(F)F)o2)cc1F)c1cccnc1 [Compound 11120, N-(4-(5-(difluoromethyl)-1,3,4-oxadiazol-2-yl)-2-fluorobenzyl)-N-(pyridin-3-yl)methanesulfonamide] | 2631 fold | 38 nM |
| Cc1cccc(N(Cc2ccc(-c3nnc(C(F)F)o3)cc2)S(=O)(=O)C2CCN(C3COC3)CC2)c1 [Compound 11682, N-(4-(5-(difluoromethyl)-1,3,4-oxadiazol-2-yl)benzyl)-1-(oxetan-3-yl)-N-(m-tolyl)piperidine-4-sulfonamide] | 4545 fold | 22 nM |
| O=S(=O)(c1cccnc1)N(Cc1ccc(-c2nnc(C(F)(F)F)o2)cc1)c1ccccc1 [Compound 11151, N-phenyl-N-(4-(5-(trifluoromethyl)-1,3,4-oxadiazol-2-yl)benzyl)pyridine-3-sulfonamide] | 741 fold | 135 nM |
| CS(=O)(=O)N(Cc1ccc(-c2nnc(C(F)F)o2)cc1F)c1ccc(F)cc1 [Compound 11276, N-(4-(5-(difluoromethyl)-1,3,4-oxadiazol-2-yl)-2-fluorobenzyl)-N-(4-fluorophenyl)methanesulfonamide] | 4000 fold | 25 nM |
| CCS(=O)(=O)N(Cc1ccc(-c2nnc(C(F)F)o2)cn1)c1ccc(F)c(Cl)c1 [Compound 11411, N-(3-chloro-4-fluorophenyl)-N-((5-(5-(difluoromethyl)-1,3,4-oxadiazol-2-yl)pyridin-2-yl)methyl)ethanesulfonamide] | 14286 fold | 7 nM |
| CCS(=O)(=O)N(Cc1ccc(-c2nnc(C(F)F)o2)cn1)c1cccc(CN2CCN(C(C)=O)CC2)c1 [Compound 11388, N-(3-((4-acetylpiperazin-1-yl)methyl)phenyl)-N-((5-(5-(difluoromethyl)-1,3,4-oxadiazol-2-yl)pyridin-2-yl)methyl)ethanesulfonamide] | 1333 fold | 75 nM |
| O=S(=O)(c1cccnc1)N(Cc1ccc(-c2nnc(C(F)F)o2)cc1)c1cccc(F)c1 [Compound 11156, N-(4-(5-(difluoromethyl)-1,3,4-oxadiazol-2-yl)benzyl)-N-(3-fluorophenyl)pyridine-3-sulfonamide] | 3448 fold | 29 nM |
| CS(=O)(=O)N(Cc1ccc(-c2nnc(C(F)F)o2)cc1F)c1cccc(Cl)c1 [Compound 11191, N-(3-chlorophenyl)-N-(4-(5-(difluoromethyl)-1,3,4-oxadiazol-2-yl)-2-fluorobenzyl)methanesulfonamide] | 5000 fold | 20 nM |
| O=S(=O)(c1cccnc1)N(Cc1ccc(-c2nnc(C(F)F)o2)cc1)c1ccccc1 [Compound 11152, N-(4-(5-(difluoromethyl)-1,3,4-oxadiazol-2-yl)benzyl)-N-phenylpyridine-3-sulfonamide] | 1724 fold | 58 nM |
| O=S(=O)(c1cccnc1)N(Cc1ccc(-c2nnc(C(F)F)o2)cc1F)c1cccc(F)c1 [Compound 11225, N-(4-(5-(difluoromethyl)-1,3,4-oxadiazol-2-yl)-2-fluorobenzyl)-N-(3-fluorophenyl)pyridine-3-sulfonamide] | 4167 fold | 24 nM |
| O=S1(=O)CCC(S(=O)(=O)N(Cc2ccc(-c3nnc(C(F)F)o3)cc2F)c2cccc(F)c2)CC1 [Compound 11256, N-(4-(5-(difluoromethyl)-1,3,4-oxadiazol-2-yl)-2-fluorobenzyl)-N-(3-fluorophenyl)tetrahydro-2H-thiopyran-4-sulfonamide 1,1-dioxide] | 7692 fold | 13 nM |
| COCC(C)N1CCC(S(=O)(=O)N(Cc2ccc(-c3nnc(C(F)F)o3)cn2)c2ccccc2)CC1 (centres unmarked) [Compound 11790, N-((5-(5-(difluoromethyl)-1,3,4-oxadiazol-2-yl)pyridin-2-yl)methyl)-1-(1-methoxypropan-2-yl)-N-phenylpiperidine-4-sulfonamide] | 2227 fold | 44.6 nM |
| O=S(=O)(CCN1CCC(F)(F)C1)N(Cc1ccc(-c2nnc(C(F)F)o2)cc1)c1ccccc1 [Compound 11815, N-(4-(5-(difluoromethyl)-1,3,4-oxadiazol-2-yl)benzyl)-2-(3,3-difluoropyrrolidin-1-yl)-N-phenylethane-1-sulfonamide] | 1326 fold | 75.4 nM |
| CCn1ncc2ccc(N(Cc3ccc(-c4nnc(C(F)F)o4)cc3)S(C)(=O)=O)cc21 [Compound 11743, N-(4-(5-(difluoromethyl)-1,3,4-oxadiazol-2-yl)benzyl)-N-(1-ethyl-1H-indazol-6-yl)methanesulfonamide] | 1466 fold | 68.2 nM |
| CS(=O)(=O)N(Cc1ccc(-c2nnc(C(F)F)o2)cn1)c1cccnc1 [Compound 11353, N-((5-(5-(difluoromethyl)-1,3,4-oxadiazol-2-yl)pyridin-2-yl)methyl)-N-(pyridin-3-yl)methanesulfonamide] | 3846 fold | 26 nM |
| CCCS(=O)(=O)N(Cc1ccc(-c2nnc(C(F)F)o2)cc1F)c1ccccc1 [Compound 11289, N-(4-(5-(difluoromethyl)-1,3,4-oxadiazol-2-yl)-2-fluorobenzyl)-N-phenylpropane-1-sulfonamide] | 3571 fold | 28 nM |
